Experimental data taken from the supplement of paper PMC13380429.

What was measured:
Settings in all cases: 72 h
Calu-3 [1] = experiment: relative viability EC50 (midpoint between 100% and the lowest measured viability); higher = less toxic
Caco-2 [2] = experiment: as above
Vero E6 [3] = experiment: as above
U2OS [4] = experiment: as above
HepG2 [5] = experiment: as above
Calu-3 [6] = experiment: cell viability relative to DMSO; higher = less toxic
Caco-2 [7] = experiment: as above
Vero E6 [8] = experiment: as above
U2OS [9] = experiment: as above
HepG2 [10] = experiment: as above
Calu-3 [11] = experiment: drug sensitivity score (DSS) for viability; higher = more toxic; extreme values may be limits of the assay
Caco-2 [12] = experiment: as above
Vero E6 [13] = experiment: as above
U2OS [14] = experiment: as above
HepG2 [15] = experiment: as above

Row | Compound | relative viability EC50 (Calu-3 [1]) [µM] | relative viability EC50 (Caco-2 [2]) [µM] | relative viability EC50 (Vero E6 [3]) [µM] | relative viability EC50 (U2OS [4]) [µM] | relative viability EC50 (HepG2 [5]) [µM] | cell viability (Calu-3 [6]; 1 nM) [%] | cell viability (Calu-3 [6]; 10 nM) [%] | cell viability (Calu-3 [6]; 100 nM) [%] | cell viability (Calu-3 [6]; 1000 nM) [%] | cell viability (Calu-3 [6]; 10000 nM) [%] | cell viability (Caco-2 [7]; 1 nM) [%] | cell viability (Caco-2 [7]; 10 nM) [%] | cell viability (Caco-2 [7]; 100 nM) [%] | cell viability (Caco-2 [7]; 1000 nM) [%] | cell viability (Caco-2 [7]; 10000 nM) [%] | cell viability (Vero E6 [8]; 1 nM) [%] | cell viability (Vero E6 [8]; 10 nM) [%] | cell viability (Vero E6 [8]; 100 nM) [%] | cell viability (Vero E6 [8]; 1000 nM) [%] | cell viability (Vero E6 [8]; 10000 nM) [%] | cell viability (U2OS [9]; 1 nM) [%] | cell viability (U2OS [9]; 10 nM) [%] | cell viability (U2OS [9]; 100 nM) [%] | cell viability (U2OS [9]; 1000 nM) [%] | cell viability (U2OS [9]; 10000 nM) [%] | cell viability (HepG2 [10]; 1 nM) [%] | cell viability (HepG2 [10]; 10 nM) [%] | cell viability (HepG2 [10]; 100 nM) [%] | cell viability (HepG2 [10]; 1000 nM) [%] | cell viability (HepG2 [10]; 10000 nM) [%] | drug sensitivity score (Calu-3 [11]) | drug sensitivity score (Caco-2 [12]) | drug sensitivity score (Vero E6 [13]) | drug sensitivity score (U2OS [14]) | drug sensitivity score (HepG2 [15])
1 | CC1(C)S[C@@H]2[C@H](NC(=O)COc3ccccc3)C(=O)N2[C@H]1C(=O)O [penicillin-v-potassium] | > 10 | > 10 | > 10 | > 10 | > 10 | 91.3 | 97.1 | 101 | 108 | 94.9 | 97.5 | 95.6 | 94.3 | 92.7 | 90 | 104 | 101 | 104 | 103 | 96.9 | 101 | 96.4 | 99.8 | 97 | 98.7 | 105 | 105 | 103 | 94.9 | 97.4 | 0 | 0 | 0 | 0 | 0
2 | CN1CCN(c2ccc3[nH]c(-c4ccc5[nH]c(-c6ccc(O)cc6)nc5c4)nc3c2)CC1 [pibenzimol] | > 10 | > 10 | > 10 | > 10 | 0.35 | 108 | 93.8 | 106 | 116 | 122 | 98.6 | 88.8 | 98 | 100 | 103 | 100 | 100 | 96 | 98.9 | 98.3 | 103 | 97.2 | 101 | 100 | 93.8 | 101 | 97.4 | 81.2 | 64.1 | 42.7 | 0 | 0 | 0 | 0 | 8.8
3 | CN1CCC(=C2c3ccccc3CCc3sccc32)CC1 [pizotifen] | > 10 | > 10 | > 10 | > 10 | > 10 | 96 | 88.7 | 102 | 91.3 | 98.2 | 97.6 | 104 | 101 | 107 | 99.2 | 98.3 | 98.6 | 97.9 | 100 | 103 | 94.6 | 95.6 | 101 | 94.4 | 94.6 | 96.2 | 101 | 99.1 | 109 | 101 | 0 | 0 | 0 | 0 | 0
4 | CCCN[C@H]1CCc2nc(N)sc2C1 [pramipexole] | > 10 | > 10 | > 10 | > 10 | > 10 | 91.7 | 111 | 107 | 102 | 110 | 97.3 | 103 | 99.7 | 96.8 | 107 | 104 | 104 | 105 | 99 | 101 | 96.2 | 98.2 | 95.5 | 98.6 | 103 | 88.2 | 90.8 | 109 | 99.3 | 108 | 0 | 0 | 0 | 0 | 0
5 | CC(=O)OCC(=O)[C@@]1(O)CC[C@H]2[C@@H]3CCC4=CC(=O)C=C[C@]4(C)[C@H]3[C@@H](O)C[C@@]21C [prednisolone-acetate] | > 10 | > 10 | > 10 | > 10 | > 10 | 99.5 | 92.3 | 82.6 | 87 | 98.1 | 110 | 108 | 93.3 | 106 | 85.8 | 99.5 | 106 | 104 | 102 | 94.4 | 110 | 106 | 100 | 101 | 97.8 | 107 | 106 | 93.1 | 90.9 | 114 | 0 | 0.1 | 0 | 0 | 0
6 | C[C@]12C=CC(=O)C=C1CC[C@@H]1[C@@H]2C(=O)C[C@@]2(C)[C@H]1CC[C@]2(O)C(=O)CO [prednisone] | > 10 | > 10 | > 10 | > 10 | > 10 | 97.8 | 98.1 | 98 | 106 | 103 | 95.8 | 99.6 | 100 | 89.7 | 85.3 | 100 | 99.3 | 104 | 97.4 | 94.6 | 98.9 | 99.2 | 95.7 | 99.6 | 95 | 100 | 105 | 98 | 101 | 90.6 | 0 | 0.9 | 0 | 0 | 0
7 | CCCOC(=O)c1ccc(O)cc1 [propyl 4-hydroxybenzoate] | > 10 | > 10 | > 10 | > 10 | > 10 | 92.1 | 95.4 | 88.7 | 92.1 | 102 | 92.2 | 100 | 102 | 90.2 | 109 | 108 | 95.9 | 102 | 95.3 | 100 | 102 | 97.1 | 100 | 98.9 | 102 | 108 | 102 | 107 | 89 | 102 | 0 | 0 | 0 | 0 | 0
8 | c1ccc2nc(N3CCNCC3)ccc2c1 [quipazine] | > 10 | > 10 | > 10 | > 10 | > 10 | 102 | 101 | 109 | 96.1 | 99.3 | 99 | 98.9 | 93.1 | 95.3 | 106 | 90.8 | 96.3 | 92.1 | 96.7 | 101 | 100 | 97.4 | 102 | 100 | 100 | 93.7 | 97.8 | 99.7 | 93.5 | 101 | 0 | 0 | 0 | 0 | 0
9 | C[C@H](NCc1ccc(OCc2cccc(F)c2)cc1)C(N)=O [safinamide] | > 10 | > 10 | > 10 | > 10 | > 10 | 95 | 101 | 92.2 | 102 | 108 | 97.9 | 97.4 | 101 | 102 | 100 | 101 | 89.8 | 99.5 | 97.2 | 100 | 94.2 | 102 | 99 | 105 | 108 | 98.1 | 92.5 | 98.4 | 93.4 | 96.6 | 0 | 0 | 0 | 0 | 0
10 | O=C(O)Cn1c2c(c3cc(F)ccc31)CN(C(=O)c1cccc3ccccc13)CC2 [setipiprant] | > 10 | > 10 | > 10 | > 10 | > 10 | 91.9 | 115 | 93.1 | 98.7 | 86.5 | 91 | 103 | 103 | 95 | 99.1 | 94.2 | 102 | 97.3 | 99.9 | 102 | 101 | 105 | 102 | 104 | 98.4 | 98 | 96.3 | 108 | 101 | 102 | 0.2 | 0 | 0 | 0 | 0
11 | C[C@@H]1CC[C@@]2(NC1)O[C@H]1C[C@H]3[C@@H]4CC=C5C[C@@H](O[C@@H]6O[C@H](CO)[C@@H](O[C@@H]7O[C@@H](C)[C@H](O)[C@@H](O)[C@H]7O)[C@H](O)[C@H]6O[C@@H]6O[C@@H](C)[C@H](O)[C@@H](O)[C@H]6O)CC[C@]5(C)[C@H]4CC[C@]3(C)[C@H]1[C@@H]2C [solamargine] | 3.34 | 2.86 | 2.51 | 3.1 | 2.32 | 89 | 96.7 | 85.8 | 103 | 1 | 92 | 98 | 94.6 | 96 | 0.4 | 101 | 95.2 | 97.4 | 91.9 | 0 | 95.7 | 103 | 97.5 | 99.1 | 0.4 | 104 | 102 | 102 | 89.8 | 0.2 | 5.3 | 6.1 | 6.8 | 5.7 | 7.2
12 | O=C1C=CC[C@@H]2[C@H]3CCCN4CCC[C@@H](CN12)[C@@H]34 [sophocarpine] | > 10 | > 10 | > 10 | > 10 | > 10 | 98.8 | 103 | 103 | 98 | 102 | 93.8 | 95.9 | 110 | 97 | 90.3 | 97.8 | 113 | 106 | 109 | 100 | 97.3 | 96.4 | 100 | 98.5 | 106 | 92.1 | 99.1 | 80.5 | 91.2 | 89.4 | 0 | 0 | 0 | 0 | 0
13 | C[C@]12Cc3c[nH]nc3C[C@@H]1CC[C@@H]1[C@@H]2CC[C@@]2(C)[C@H]1CC[C@]2(C)O [stanozolol] | > 10 | > 10 | > 10 | > 10 | > 10 | 95 | 100 | 103 | 94.1 | 107 | 101 | 95 | 104 | 107 | 91.4 | 101 | 109 | 102 | 106 | 95 | 98.5 | 101 | 96.9 | 96.3 | 97.3 | 103 | 98.5 | 101 | 104 | 94.1 | 0 | 0 | 0 | 0 | 0
